Test results as given in patent US5466717A, “Halogenated 4'-methoxyacetophenones as microbicides and preservatives” (Buckman Laboratories Int'l, Inc., priority 1993, dated 1995).
Where two headings read alike, the source gives them in different places.

Tests used:
Pseudomonas aeruginosa = experiment: Pulp substrate method, percent kill of P. aeruginosa (Table 2); assay type: cell-based
Method: (§1) Compounds 1 and 2 were tested by the pulp substrate method described in detail in U.S. Pat. No. 2,881,070, column 5, line 12--column 6, line 53. The disclosure of U.S. Pat. No. 2,881,070 is specifically incorporated here by reference. […] The tests utilized Enterobacter aerogenes and Pseudomonas aeruginosa in pulp substrates that had been buffered at pH 7.0 and 8.0.

Enterobacter aerogenes = experiment: Pulp substrate method, percent kill of E. aerogenes (Table 2); assay type: cell-based; settings: for killing at 1 ppm / killing at 2 ppm / killing at 4 ppm / killing at 8 ppm / killing at 10 ppm / killing at 15 ppm / killing at 20 ppm / killing at 25 ppm: Klebsiella aerogenes, pulp substrate, read-out: % Kill of E. aerugenes
Method: as §1

P. aeruginosa = experiment: Basal salts method, percentage kill of P. aeruginosa (Table 5); assay type: cell-based; settings: Pseudomonas aeruginosa
Method: (§2) Compounds 1 and 2 were tested against bacterial growth by the basal salts method described in U.S. Pat. No. 2,881,070, Column 5, line 12--Column 6, line 53. The disclosure of U.S. Patent No. 2,881,070 is specifically incorporated here by reference.

[1] = test system: Desulfovibrio desulfuricans; experiment: Effectiveness against sulfate reducing bacterium, Method API Rp 38 (Table 7); assay type: cell-based; set-up: key: 4: excellent; 3: good; 2: poor; 1: very poor, scant, questionable; 0: no growth; settings: pH 7.0, duplicates
Method: The effectiveness of compounds 1 and 2 against Desulfovibrio desulfuricans,a sulfate reducing bacterium, was determined using the method recommended by the American Petroleum Institute (Method API Rp 38). The composition of the sulfate-reducer medium for the bacteriostatic test is as follows: The ingredients are dissolved by gentle heating with constant stirring. […] If necessary, the medium is then filtered through Whatman No. 1 or No. 2 filter paper. Following filtration, the medium is autoclaved at 15 lb steam pressure for […]. After autoclaving, the medium is allowed to cool slightly and the iron salt, Fe(SO4)2 (NH4)2.6H2 O, is added. The pH is then checked and readjusted if necessary. The medium is now cooled to room temperature as rapidly as possible, without agitation. After cooling, the medium is inoculated from the third successive 24-hour transfer of an actively growing culture (a liquid culture which turns black within 24 hours after inoculation) of sulfate-reducing bacteria. Ten milliliters of inoculum are added to each liter of medium. From stock solutions of the chemical to be screened, sufficient amounts of the compounds are added to 1- or 2-oz clear bottles so that the desired concentrations of chemicals are present when the containers are filled. The amount of stock solution added cannot exceed 10 percent of the volume of the test bottle. After addition of the chemical, the bottles are completely filled with the inoculated medium. The bottles are then capped with plastic caps containing cork and aluminum foil or Teflon liners and are incubated at 30°±2° C. All work is done in duplicate with at least three controls for each series. The controls consist of bottles filled with inoculated medium only. Growth of sulfate-reducing bacteria in the bottles is indicated by an intense blackening of the medium, whereas containers having sufficient chemical to inhibit growth will remain clear. Bottles with no sulfate-reducing bacteria growth are observed for a period of 28 days after the controls have blackened. The results were recorded using a +/0 scale where "+" indicates growth and "0" indicates no growth.

[2] = test system: Pseudomonas aeruginosa, Enterobacter serogenes and Bacillus subtilus; experiment: Preservation of acrylic latex paint, 9 week multiple challenge test (Table 1); assay type: cell-based; set-up: key: 0: no growth was observed; +: less than 10 colonies were observed; ++: 10 or more colonies were observed
Method: The preservative effectiveness of compounds 1 and 2 was determined in a freshly prepared water-based paint formulated with titanium dioxide and calcium carbonate as pigments, an acrylic resin emulsion, dispersants, and hydroxyethyl cellulose as a thickener. The pH of this paint was approximately 9.0. […] One hundred gram samples of the test paints were challenged initially and at the end of the third and sixth weeks in a three-challenge, nine-week test with 1.0 milliliter of […] containing Pseudomonas aeruginosa, Enterobacter serogenes and Bacillus subtilus at a level of approximately 1.5×10^6 organisms per milliliter. After vigorous shaking, the inoculated paint was incubated at 28° C. Growth in system was monitored by streaking a sample of each test paint onto a nutrient agar on plates at intervals of 1 day, 2 days, 3 days, 7 days, and 21 days after each challenge. The streaked plates were incubated at 37° C. and examined for bacterial growth after 24 hours (challenge 1). A second sample of the same inoculated paint was rechallenged at the end of 21 days (challenge 2) and again at the end of 42 days (challenge 3).

E. aerogenes = experiment: Basal salts method, percentage kill of E. aerogenes (Table 5); assay type: cell-based, Enterobacter aerogenes; settings: Klebsiella aerogenes
Method: as §2

[3] = pH 7.0, read-out: % Kill of P. aeroginosa
[4] = pH 8.0, read-out: % Kill of P. aeroginosa

`COc1ccc(C(=O)CBr)cc1Br` [Compound 1, 2,3'-dibromo-4'-methoxyacetophenone] showed a killing at 1 ppm (Pseudomonas aeruginosa; [3]) of 6%, a killing at 1 ppm (Pseudomonas aeruginosa; [4]) of 85% and a killing at 2 ppm (Pseudomonas aeruginosa; [3]) of 7%. The killing at 2 ppm (Pseudomonas aeruginosa; [4]) was 75%, the killing at 4 ppm (Pseudomonas aeruginosa; [3]) was 43% and the killing at 4 ppm (Pseudomonas aeruginosa; [4]) was 89%. For the same molecule, the killing at 8 ppm (Pseudomonas aeruginosa; [3]) was 67%, the killing at 8 ppm (Pseudomonas aeruginosa; [4]) was 70% and the killing at 10 ppm (Pseudomonas aeruginosa; [3]) was 93%. The killing at 10 ppm (Pseudomonas aeruginosa; [4]) was 79%, the killing at 15 ppm (Pseudomonas aeruginosa; [3]) was 94% and the killing at 15 ppm (Pseudomonas aeruginosa; [4]) was 94%. For the same molecule, the killing at 20 ppm (Pseudomonas aeruginosa; [3]) was 98%, the killing at 20 ppm (Pseudomonas aeruginosa; [4]) was 89% and the killing at 25 ppm (Pseudomonas aeruginosa; [3]) was 97%. For the same molecule, the killing at 25 ppm (Pseudomonas aeruginosa; [4]) was 99%, the killing at 1 ppm (Enterobacter aerogenes; pH 7.0) was 31% and the killing at 1 ppm (Enterobacter aerogenes; pH 8.0) was 73%. The killing at 2 ppm (Enterobacter aerogenes; pH 7.0) was 25%, the killing at 2 ppm (Enterobacter aerogenes; pH 8.0) was 81% and the killing at 4 ppm (Enterobacter aerogenes; pH 7.0) was 38%. For the same molecule, the killing at 4 ppm (Enterobacter aerogenes; pH 8.0) was 93%, the killing at 8 ppm (Enterobacter aerogenes; pH 7.0) was 0% and the killing at 8 ppm (Enterobacter aerogenes; pH 8.0) was 97%. The killing at 10 ppm (Enterobacter aerogenes; pH 7.0) was 10%, the killing at 10 ppm (Enterobacter aerogenes; pH 8.0) was 92% and the killing at 15 ppm (Enterobacter aerogenes; pH 7.0) was 18%. It also gave a killing at 15 ppm (Enterobacter aerogenes; pH 8.0) of 99.8%, a killing at 20 ppm (Enterobacter aerogenes; pH 7.0) of 96% and a killing at 20 ppm (Enterobacter aerogenes; pH 8.0) of 100%. The killing at 25 ppm (Enterobacter aerogenes; pH 7.0) was 99%, the killing at 25 ppm (Enterobacter aerogenes; pH 8.0) was 97.8% and the “bactericidal activity (in words)” value (Enterobacter aerogenes; at both neutral and alkaline pH, conclusion from Table 2 (E. aerogenes and P. aeruginosa)) was “good bactericides”. The killing at 10 ppm (P. aeruginosa; pH 6.0) was 100%, the killing at 10 ppm (P. aeruginosa; pH 8.0) was 98% and the killing at 20 ppm (P. aeruginosa; pH 6.0) was 100%. It also gave a killing at 20 ppm (P. aeruginosa; pH 8.0) of 99%, a killing at 30 ppm (P. aeruginosa; pH 6.0) of 100% and a killing at 30 ppm (P. aeruginosa; pH 8.0) of 99.6%. For the same molecule, the “growth of Desulfovibrio desulfuricans” value ([1]; 4 ppm) was 0, the “growth of Desulfovibrio desulfuricans” value ([1]; 10 ppm) was 0 and the “growth of Desulfovibrio desulfuricans” value ([1]; 15 ppm) was 0. The “growth of Desulfovibrio desulfuricans” value ([1]; 20 ppm) was 0, the “Observation of growth 21 days after challenge” value (from here on “Observation of growth 21 days”) ([2]; 100 ppm w/w, challenge 1) was “++ (10 or more colonies were observed)” and the “Observation of growth 21 days” value ([2]; 100 ppm w/w, challenge 2) was “++ (10 or more colonies were observed)”. The “Observation of growth 21 days” value ([2]; 100 ppm w/w, challenge 3) was “++ (10 or more colonies were observed)”, the “Observation of growth 21 days” value ([2]; 250 ppm w/w, challenge 1) was 0 and the “Observation of growth 21 days” value ([2]; 250 ppm w/w, challenge 2) was 0. For the same molecule, the “Observation of growth 21 days” value ([2]; 250 ppm w/w, challenge 3) was 0, the “Observation of growth 21 days” value ([2]; 500 ppm w/w, challenge 1) was 0 and the “Observation of growth 21 days” value ([2]; 500 ppm w/w, challenge 2) was 0. For the same molecule, the “Observation of growth 21 days” value ([2]; 500 ppm w/w, challenge 3) was 0, the “Observation of growth 21 days” value ([2]; 2500 ppm w/w, challenge 1) was 0 and the “Observation of growth 21 days” value ([2]; 2500 ppm w/w, challenge 2) was 0. The “Observation of growth 21 days” value ([2]; 2500 ppm w/w, challenge 3) was 0, the “Observation of growth 21 days” value ([2]; 5000 ppm w/w, challenge 1) was 0 and the “Observation of growth 21 days” value ([2]; 5000 ppm w/w, challenge 2) was 0. The “Observation of growth 21 days” value ([2]; 5000 ppm w/w, challenge 3) was 0, the killing at 2 ppm (E. aerogenes; 2 ppm, pH 8.0) was 99% and the killing at 4 ppm (E. aerogenes; 4 ppm, pH 8.0) was 99.9%. For the same molecule, the killing at 8 ppm (E. aerogenes; 8 ppm, pH 8.0) was 100%, the killing at 10 ppm (E. aerogenes; pH 6.0) was 100% and the killing at 10 ppm (E. aerogenes; pH 8.0) was 100%. For the same molecule, the killing at 20 ppm (E. aerogenes; pH 6.0) was 100%, the killing at 20 ppm (E. aerogenes; pH 8.0) was 100% and the killing at 30 ppm (E. aerogenes; pH 6.0) was 100%. The killing at 30 ppm (E. aerogenes; pH 8.0) was 100%.
